Measured values as given in patent US20250018046A1, “COMPOUNDS FOR TARGETING DEGRADATION OF IRAK4 PROTEINS” (BIOGEN MA INC, priority 2021, published 2025).

target: T1, IRAK4 (Homo sapiens, UniProt Q9NWZ3); experiment: IRAK4 degradation assay using the HiBiT Method; assay type: cell-based; settings: 293T cells expressing HiBiT-tagged IRAK4; 6-hour incubation; Nano-Glo HiBiT Lytic Assay luminescence
T1 construct: knocking-in a HiBiT fusion tag into the C-terminal of the IRAK4 gene in 293T cells; host or cells: 293T cells, knock-in of HiBiT at the endogenous IRAK4 locus
T1 sequence (Q9NWZ3 1-460): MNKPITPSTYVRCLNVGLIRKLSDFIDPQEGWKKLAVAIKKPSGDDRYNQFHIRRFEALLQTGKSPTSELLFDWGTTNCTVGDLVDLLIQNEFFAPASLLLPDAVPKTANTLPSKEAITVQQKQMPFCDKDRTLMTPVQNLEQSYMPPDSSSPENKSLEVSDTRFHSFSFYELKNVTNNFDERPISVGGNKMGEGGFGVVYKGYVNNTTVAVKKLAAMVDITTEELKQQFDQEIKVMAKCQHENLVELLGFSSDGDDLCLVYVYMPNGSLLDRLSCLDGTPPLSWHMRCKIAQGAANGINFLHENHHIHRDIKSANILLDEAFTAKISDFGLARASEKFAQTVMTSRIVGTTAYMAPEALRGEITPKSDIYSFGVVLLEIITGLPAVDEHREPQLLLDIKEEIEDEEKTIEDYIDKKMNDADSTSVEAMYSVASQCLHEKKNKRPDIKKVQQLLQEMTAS
Outline: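 HEK293T cells with HiBiT knocked into the IRAK4 C-terminus, 10,000 cells per well, treated with an 11-point half-log series […] in duplicate for 6 hours at 37° C., 5% CO2. Remaining IRAK4 quantified by Nano-Glo HiBiT lytic luminescence against DMSO controls.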

Q: Which DC50 does the source give for `CC(C)Oc1cc2nc(C3CCN(CC(=O)N4CCC(c5ccc(NC6CCC(=O)NC6=O)cc5)CC4)CC3)cn2cc1NC(=O)c1cnn2cccnc12` (stereo not drawn) [Example 57, N-(2-(1-(2-(4-(4-((2,6-dioxopiperidin-3-yl)amino)phenyl)piperidin-1-yl)-2-oxoethyl)piperidin-4-yl)-7-isopropoxyimidazo[1,2-a]pyridin-6-yl)pyrazolo[1,5-a]pyrimidine-3-carboxamide] here?
A: Its DC50 is under 10 nM.

Q: `Cc1cc(-c2nc(C(=O)Nc3cn4cc(C5CCN(CC(=O)N6CCC(c7ccc(NC8CCC(=O)NC8=O)cc7)CC6)CC5)nc4cc3OC(C)C)co2)ccn1` (stereo not drawn) [Example 58, N-(2-(1-(2-(4-(4-((2,6-dioxopiperidin-3-yl)amino)phenyl)piperidin-1-yl)-2-oxoethyl)piperidin-4-yl)-7-isopropoxyimidazo[1,2-a]pyridin-6-yl)-2-(2-methylpyridin-4-yl)oxazole-4-carboxamide] was tested. Which DC50 did it give?
A: Its DC50 is 10 to 100 nM.

Q: For `CC(C)Oc1cc2nc(C3CCN(CC(=O)N4CCC(c5ccc(NC6CCC(=O)NC6=O)cc5)CC4)CC3)cn2cc1NC(=O)c1ccc(F)cc1F` (stereo not drawn) [Example 59, N-(2-(1-(2-(4-(4-((2,6-dioxopiperidin-3-yl)amino)phenyl)piperidin-1-yl)-2-oxoethyl)piperidin-4-yl)-7-isopropoxyimidazo[1,2-a]pyridin-6-yl)-2,4-difluorobenzamide], which DC50 is on record?
A: Its DC50 is 10 to 100 nM.

Q: For `CC(C)Oc1cc2nc(C3CCN(CC(=O)N4CCC(c5ccc(NC6CCC(=O)NC6=O)cc5)CC4)CC3)cn2cc1NC(=O)c1ccn(C)n1` (stereo not drawn) [Example 60, N-[2-[1-[2-[4-[4-[(2,6-dioxo-3-piperidyl)amino]phenyl]-1-piperidyl]-2-oxo-ethyl]-4-piperidyl]-7-isopropoxy-imidazo[1,2-a]pyridin-6-yl]-1-methyl-pyrazole-3-carboxamide], which DC50 is on record?
A: The DC50 was 10 to 100 nM.

Q: Which DC50 does the source give for `CC(C)Oc1cc2nc(C3CCN(CC(=O)N4CCC(c5ccc(NC6CCC(=O)NC6=O)cc5)CC4)CC3)cn2cc1NC(=O)c1cccc(C(F)F)c1` (stereo not drawn) [Example 61, 3-(difluoromethyl)-N-(2-(1-(2-(4-(4-((2,6-dioxopiperidin-3-yl)amino)phenyl)piperidin-1-yl)-2-oxoethyl)piperidin-4-yl)-7-isopropoxyimidazo[1,2-a]pyridin-6-yl)benzamide] here?
A: Its DC50 is 10 to 100 nM.

Q: How did the DC50 turn out when `CC(C)Oc1cc2nc(C3CCN(CCN4CCC(c5ccc(CN6CCC(=O)NC6=O)cc5)CC4)CC3)cn2cc1NC(=O)c1cccc(C(F)(F)F)n1` [Example 62, N-[2-[1-[2-[4-[4-[(2,4-dioxohexahydropyrimidin-1-yl)methyl]phenyl]-1-piperidyl]ethyl]-4-piperidyl]-7-isopropoxy-imidazo[1,2-a]pyridin-6-yl]-6-(trifluoromethyl)pyridine-2-carboxamide] was run?
A: The DC50 was 100 to 500 nM.

Q: With `CC(C)Oc1cc2nc(C3CCN(CCN4CCC(c5ccc(C6CCC(=O)NC6=O)cc5F)CC4)CC3)cn2cc1NC(=O)c1cccc(C(F)(F)F)n1` (stereo not drawn) [Example 64, N-[2-[1-[2-[4-[4-(2,6-dioxo-3-piperidyl)-2-fluoro-phenyl]-1-piperidyl]ethyl]-4-piperidyl]-7-isopropoxy-imidazo[1,2-a]pyridin-6-yl]-6-(trifluoromethyl)pyridine-2-carboxamide] as the molecule, how does the DC50 read?
A: Its DC50 is 100 to 500 nM.

Q: Which DC50 does the source give for `CC(C)Oc1cc2nc(C3CCN(CCN4CCN(c5ccc(C6CCC(=O)NC6=O)cc5)CC4)CC3)cn2cc1NC(=O)c1cccc(C(F)(F)F)n1` (stereo not drawn) [Example 65, N-[2-[1-[2-[4-[4-(2,6-dioxo-3-piperidyl)phenyl]piperazin-1-yl]ethyl]-4-piperidyl]-7-isopropoxy-imidazo[1,2-a]pyridin-6-yl]-6-(trifluoromethyl)pyridine-2-carboxamide] here?
A: Its DC50 is 10 to 100 nM.

Q: With `CC(C)Oc1cc2nc(C3CCN(CCN4CCC(c5ccc(NC6CCC(=O)NC6=O)cc5)CC4)CC3)cn2cc1NC(=O)c1cccc(C(F)(F)F)n1` (stereo not drawn) [Example 66, N-[2-[1-[2-[4-[4-[(2,6-dioxo-3-piperidyl)amino]phenyl]-1-piperidyl]ethyl]-4-piperidyl]-7-isopropoxy-imidazo[1,2-a]pyridin-6-yl]-6-(trifluoromethyl)pyridine-2-carboxamide] as the molecule, how does the DC50 read?
A: Its DC50 is 100 to 500 nM.

Q: `CC(C)Oc1cc2nc(C3CCN(CCN4CCC(c5ccc(NC6CCC(=O)NC6=O)cc5F)CC4)CC3)cn2cc1NC(=O)c1cccc(C(F)(F)F)n1` (stereo not drawn) [Example 67, N-[2-[1-[2-[4-[4-[(2,6-dioxo-3-piperidyl)amino]-2-fluoro-phenyl]-1-piperidyl]ethyl]-4-piperidyl]-7-isopropoxy-imidazo[1,2-a]pyridin-6-yl]-6-(trifluoromethyl)pyridine-2-carboxamide] was tested. Which DC50 did it give?
A: The DC50 was 100 to 500 nM.

Q: With `CC(C)Oc1cc2nc(C3CCN(CCc4ccc(NC5CCC(=O)NC5=O)cc4)CC3)cn2cc1NC(=O)c1cccc(C(F)(F)F)n1` (stereo not drawn) [Example 68, N-[2-[1-[2-[4-[(2,6-dioxo-3-piperidyl)amino]phenyl]ethyl]-4-piperidyl]-7-isopropoxy-imidazo[1,2-a]pyridin-6-yl]-6-(trifluoromethyl)pyridine-2-carboxamide] as the molecule, how does the DC50 read?
A: Its DC50 is 10 to 100 nM.

Q: For `CC(C)Oc1cc2nc(C3CCN(CCCCc4ccc(NC5CCC(=O)NC5=O)cc4)CC3)cn2cc1NC(=O)c1cccc(C(F)(F)F)n1` (stereo not drawn) [Example 69, N-[2-[1-[4-[4-[(2,6-dioxo-3-piperidyl)amino]phenyl]butyl]-4-piperidyl]-7-isopropoxy-imidazo[1,2-a]pyridin-6-yl]-6-(trifluoromethyl)pyridine-2-carboxamide], which DC50 is on record?
A: Its DC50 is 100 to 500 nM.

Q: `CC(C)Oc1cc2nc(C3CCN(CCCCCCc4ccc(NC5CCC(=O)NC5=O)cc4)CC3)cn2cc1NC(=O)c1cccc(C(F)(F)F)n1` (stereo not drawn) [Example 70, N-[2-[1-[6-[4-[(2,6-dioxo-3-piperidyl)amino]phenyl]hexyl]-4-piperidyl]-7-isopropoxy-imidazo[1,2-a]pyridin-6-yl]-6-(trifluoromethyl)pyridine-2-carboxamide] was tested. Which DC50 did it give?
A: The DC50 was 100 to 500 nM.

Q: `CC(C)Oc1cc2nc(CCCNC(=O)CN3CCC(c4ccc(NC5CCC(=O)NC5=O)cc4)CC3)cn2cc1NC(=O)c1cccc(C(F)(F)F)n1` (stereo not drawn) [Example 71, N-[2-[3-[[2-[4-[4-[(2,6-dioxo-3-piperidyl)amino]phenyl]-1-piperidyl]acetyl]amino]propyl]-7-isopropoxy-imidazo[1,2-a]pyridin-6-yl]-6-(trifluoromethyl)pyridine-2-carboxamide] was tested. Which DC50 did it give?
A: The DC50 was 100 to 500 nM.

Q: `CC(C)Oc1cc2nc(CCCCCCN3CCC(c4ccc(NC5CCC(=O)NC5=O)cc4)CC3)cn2cc1NC(=O)c1cccc(C(F)(F)F)n1` (stereo not drawn) [Example 72, N-[2-[6-[4-[4-[(2,6-dioxo-3-piperidyl)amino]phenyl]-1-piperidyl]hexyl]-7-isopropoxy-imidazo[1,2-a]pyridin-6-yl]-6-(trifluoromethyl)pyridine-2-carboxamide] was tested. Which DC50 did it give?
A: The DC50 was 100 to 500 nM.

Q: With `CC(C)Oc1cc2nc([C@H](Cc3ccccc3)NC(=O)CN3CCC(c4ccc(C5CCC(=O)NC5=O)cc4)CC3)cn2cc1NC(=O)c1cccc(C(F)(F)F)n1` (stereo partly drawn) [Example 73, N-[2-[(1S)-1-[[2-[4-[4-(2,6-dioxo-3-piperidyl)phenyl]-1-piperidyl]acetyl]amino]-2-phenyl-ethyl]-7-isopropoxy-imidazo[1,2-a]pyridin-6-yl]-6-(trifluoromethyl)pyridine-2-carboxamide] as the molecule, how does the DC50 read?
A: Its DC50 is 100 to 500 nM.

Q: How did the DC50 turn out when `CC(C)Oc1cc2nc(CC3CN(C(=O)CN4CCC(c5ccc(C6CCC(=O)NC6=O)cc5)CC4)C3)cn2cc1NC(=O)c1cccc(C(F)(F)F)n1` (stereo not drawn) [Example 74, N-[2-[[1-[2-[4-[4-(2,6-dioxo-3-piperidyl)phenyl]-1-piperidyl]acetyl]azetidin-3-yl]methyl]-7-isopropoxy-imidazo[1,2-a]pyridin-6-yl]-6-(trifluoromethyl)pyridine-2-carboxamide] was run?
A: Its DC50 is 100 to 500 nM.

Q: With `CC(C)Oc1cc2nc(C3CCN(C(=O)CN4CCC(c5ccc(C6CCC(=O)NC6=O)cc5)CC4)C3)cn2cc1NC(=O)c1cccc(C(F)(F)F)n1` (stereo not drawn) [Example 75, N-[2-[1-[2-[4-[4-(2,6-dioxo-3-piperidyl)phenyl]-1-piperidyl]acetyl]pyrrolidin-3-yl]-7-isopropoxy-imidazo[1,2-a]pyridin-6-yl]-6-(trifluoromethyl)pyridine-2-carboxamide] as the molecule, how does the DC50 read?
A: Its DC50 is 10 to 100 nM.

Q: `CC(C)Oc1cc2nc(C3CCCN(C(=O)CN4CCC(c5ccc(C6CCC(=O)NC6=O)cc5)CC4)C3)cn2cc1NC(=O)c1cccc(C(F)(F)F)n1` (stereo not drawn) [Example 76, N-[2-[1-[2-[4-[4-(2,6-dioxo-3-piperidyl)phenyl]-1-piperidyl]acetyl]-3-piperidyl]-7-isopropoxy-imidazo[1,2-a]pyridin-6-yl]-6-(trifluoromethyl)pyridine-2-carboxamide] was tested. Which DC50 did it give?
A: Its DC50 is 100 to 500 nM.

Q: How did the DC50 turn out when `CC(C)Oc1cc2nc(C3CN(C(=O)CN4CCC(c5ccc(C6CCC(=O)NC6=O)cc5)CC4)C3)cn2cc1NC(=O)c1cccc(C(F)(F)F)n1` (stereo not drawn) [Example 77, N-[2-[1-[2-[4-[4-(2,6-dioxo-3-piperidyl)phenyl]-1-piperidyl]acetyl]azetidin-3-yl]-7-isopropoxy-imidazo[1,2-a]pyridin-6-yl]-6-(trifluoromethyl)pyridine-2-carboxamide] was run?
A: The DC50 was 100 to 500 nM.

Q: With `CC(C)Oc1cc2nc([C@@H](Cc3ccccc3)NC(=O)CN3CCC(c4ccc(C5CCC(=O)NC5=O)cc4)CC3)cn2cc1NC(=O)c1cccc(C(F)(F)F)n1` (stereo partly drawn) [Example 78, N-[2-[(1R)-1-[[2-[4-[4-(2,6-dioxo-3-piperidyl)phenyl]-1-piperidyl]acetyl]amino]-2-phenyl-ethyl]-7-isopropoxy-imidazo[1,2-a]pyridin-6-yl]-6-(trifluoromethyl)pyridine-2-carboxamide] as the molecule, how does the DC50 read?
A: Its DC50 is 500 to 1000 nM.
